Experimental data reported in the supplement of paper PMC4862054.
Values joined by “and” are separate entries in the source; they are usually repeats but may differ in a detail not shown here. Identical values can stand only once.

Legend:
Details in all cases: incubation time: 72 h
[1] = system: MDA-MB-453; assay: drug sensitivity score (DSS), CellTiter-Blue viability (DSS (AUC-based score)); higher = stronger viability inhibition; extreme values may be limits of the assay
Description: (§1)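 DSRT with the CellTiter-Blue (resazurin reduction) viability readout, fluorescence 560/590 nm, 72 h incubation. Plates were normalised to DMSO and benzethonium chloride controls. DSS is computed from the area under the fitted dose-response curve (5 or 9 concentrations).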

[2] = system: Hs578T; assay: as above
Description: as §1

[3] = system: MDA-MB-436; assay: as above
Description: as §1

[4] = system: HCC1143; assay: as above
Description: as §1

[5] = system: BT-549; assay: as above
Description: as §1

[6] = system: CAL-148; assay: as above
Description: as §1

[7] = system: MDA-MB-468; assay: as above
Description: as §1

[8] = system: CAL-120; assay: as above
Description: as §1

[9] = system: HCC1937; assay: as above
Description: as §1

[10] = system: HCC1599; assay: as above
Description: as §1

[11] = system: MDA-MB-231; assay: as above
Description: as §1

[12] = system: MFM-223; assay: as above
Description: as §1

[13] = system: CAL-85-1; assay: as above
Description: as §1

[14] = system: BT-474; assay: as above
Description: as §1

[15] = system: DU-4475; assay: as above
Description: as §1

[16] = system: HDQ-P1; assay: as above
Description: as §1

[17] = system: SK-BR-3; assay: as above
Description: as §1

[18] = system: CAL-51; assay: as above
Description: as §1

[19] = system: BT-549; assay: drug sensitivity score (DSS), CellTiter-Glo (DSS (AUC-based score)); higher = stronger drug effect (viability inhibition or cytotoxicity); extreme values may be limits of the assay
In short: (§2)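 Each compound occupied 5 concentrations in 10-fold steps over its own 10,000-fold range in 384-well plates, into which breast cancer cell lines were seeded as 20 µl suspension. Following 72 h of incubation, CellTox Green fluorescence (485/520 nm) was measured, and CellTiter-Glo luminescence was measured after 10 min at room temperature. Plates were individually normalised to 0.1 % DMSO and a positive kill control. From the area under the fitted dose-response curve, a drug sensitivity score was calculated.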

[20] = system: HCC1599; assay: as above
In short: as §2

[21] = system: MFM-223; assay: as above
In short: as §2

[22] = system: CAL-85-1; assay: as above
In short: as §2

[23] = system: MCF-10A; assay: as above
In short: as §2

[24] = system: BT-474; assay: as above
In short: as §2

[25] = system: CAL-51; assay: as above
In short: as §2

| SMILES | drug sensitivity score [1] | drug sensitivity score [2] | drug sensitivity score [3] | drug sensitivity score [4] | drug sensitivity score [5] | drug sensitivity score [6] | drug sensitivity score [7] | drug sensitivity score [8] | drug sensitivity score [9] | drug sensitivity score [10] | drug sensitivity score [11] | drug sensitivity score [12] | drug sensitivity score [13] | drug sensitivity score [14] | drug sensitivity score [15] | drug sensitivity score [16] | drug sensitivity score [17] | drug sensitivity score [18] | drug sensitivity score [19] | drug sensitivity score [20] | drug sensitivity score [21] | drug sensitivity score [22] | drug sensitivity score [23] | drug sensitivity score [24] | drug sensitivity score [25] |
| --- | --- | --- | --- | --- | --- | --- | --- | --- | --- | --- | --- | --- | --- | --- | --- | --- | --- | --- | --- | --- | --- | --- | --- | --- | --- |
| CC(=O)O[C@@]12CO[C@@H]1C[C@H](O)[C@@]1(C)C(=O)[C@H](O)C3=C(C)[C@@H](OC(=O)[C@H](O)[C@@H](NC(=O)OC(C)(C)C)c4ccccc4)C[C@@](O)([C@@H](OC(=O)c4ccccc4)[C@H]21)C3(C)C [Docetaxel] | 24.2 and 24.9 | 31.2 and 30.6 | 18.7 and 19.2 | 19.6 and 25.2 | 27.3 and 29.3 | 26.1 and 28.4 | 19.4 and 20.5 | 24 and 24.9 | 27.2 and 24.9 | 0 | 24.4 and 25.8 | 16.2 and 17.8 | 22.5 and 22.9 | 21.1 and 19.5 | 26.1 and 28.1 | 17.8 and 22.5 | 28.9 and 29.4 | 22.4 and 25.2 | 30.5 | 16.7 | 16.7 | 25.6 | 20.4 | 15.6 | 19.5 |
| CC(C)(C)c1cnc(CSc2cnc(NC(=O)C3CCNCC3)s2)o1 [SNS-032] | 20 | 23.1 | 15 | 17.4 | 17.6 | 19.6 | 16.5 | 18.9 | 20.4 | 18 | 21.1 | 17.5 | 22.1 | 15.2 | 20.1 | 21.3 | 22 | 13.8 | 27 | 18.5 | 17.1 | 25.1 | 18.6 | 17.8 | 28.6 |
| Nc1ncn([C@@H]2O[C@H](CO)[C@@H](O)[C@H]2O)c(=O)n1 [Azacitidine] | 0 | 3.33 | 3.01 | 0 | 3.42 | 0 | 11.3 | 0.768 | 5.11 | 0 | 0 | 0 | 0 | 0 | 0 | 0 | 0 | 0 | 5.75 | 1.27 | 0 | 0 | 0 | 1.74 | 0 |
| Cc1sc2c(c1C)C(c1ccc(Cl)cc1)=N[C@@H](CC(=O)OC(C)(C)C)c1nnc(C)n1-2 [(+)JQ1] | 17.2 | 11 | 0 | 6.54 | 10.7 | 9.78 | 5.95 | 11.2 | 6.88 | 7.63 | 12.9 | 10.1 | 10.5 | 0 | 17.1 | 0 | 8.66 | 3.04 | 13.3 | 0 | 8.38 | 12.7 | 9.62 | 7.3 | 1.66 |
| Nc1nc2[nH]cnc2c(=S)[nH]1 [Thioguanine] | 0 | 2.55 | 4.56 | 0 | 0.924 | 2.39 | 7.48 | 7.28 | 3.55 | 0 | 8.63 | 0 | 3.32 | 0 | 0 | 0 | 0.902 | 0.794 | 1.98 | 5.01 | 0 | 6.09 | 0 | 12 | 5.29 |
